Series [1] deals with rat. As to conditions: oral; cited from earlier work.
For series [2], the system named is prostate cancer. The note with it: consumption of lycopene; Giovannucci et al. 1995; cited from earlier work.
Series [3] can be described thus: Pigment (lycopene) stability in freeze-dried tomato skins on 6-day storage at 30° C. As to conditions: 6 days at 30° C., hexanes extract, spectrophotometric. It is filed as physicochemical. The text has this:
Wet tomato skins from Siagra Co., Chengmai, Thailand (8.3 kg of the 50 lb batch used in Example 1) were freeze-dried for three days in a tray freeze-dryer (FTS Systems Inc., Stone Ridge N.Y.) to obtain freeze-dried tomato skins (2.08 kg, 24.3 percent moisture) from which five samples were taken.
The first sample of freeze-dried tomato skins was ground in a rotary meat grinder, which separated the seeds from the tomato skins. Further separation using sieves and air separation produced samples that were substantially only from the skins or the seeds of the tomatoes. The skin and seed samples were ground separately in a CYCLOTEC TECATOR™ mill (Fisher Scientific, Pittsburgh Pa.) fitted with a 0.5 mm screen, and found to contain 1328 milligrams of pigment per kilogram of tomato skins and 97 milligrams of pigment per kilogram of tomato seeds. The seeds thus contribute little to the total extractable pigment yet constitute a large portion of the total sample mass.
A second sample was left in flake form, and was dried for 6 days at 30° C. A third sample was ground in a WILEY™ mill (Fisher Scientific, Pittsburgh Pa.) fitted with a 2 mm screen and dried for 6 days at 30° C. A fourth sample was ground in a WILEY™ mill fitted with a 1 mm screen and dried for 6 days at 30° C. A fifth sample was ground in a CYCLOTEC™ mill fitted with a 0.5 mm screen and dried for 6 days at 30° C.
At the end of the treatment, all of the samples were extracted with hexanes, analyzed spectrophotometrically, and compared with the amount of lycopene present in the freeze-dried flakes before the 6-day heat treatment. The samples ground in the CYCLOTEC™ mill (<0.5 mm particles) and the WILEY™ mill (<1 mm and <2 mm particles) had more of the oxidized lycopene content than the non-ground (flake) sample: 36, 33, 36 and 25 percent pigment losses, respectively. However, none of the samples after 6 days had over 75 percent of the lycopene that was present before the treatment.

Here are results for six compounds from patent US5858700A, “Process for the isolation and purification of lycopene crystals” (Kemin Foods, LC, priority 1997, dated 1999).

For `c1ccncc1` [Pyridine], the LD50 in series [1] is on record as 1.58 mL/kg.

For the compound `CC(C)=O` [Acetone], the LD50 in series [1] is 10.7 mL/kg.

Take `CC(O)CO` (stereo not shown) [Propylene Glycol, 1,2-propanediol]: the LD50 in series [1] was 25 mL/kg.

For `CC(C)=CCC/C(C)=C/C=C/C(C)=C/C=C/C(C)=C/C=C/C=C(C)/C=C/C=C(C)/C=C/C=C(\C)CCC=C(C)C` [lycopene, .psi.,.psi.-carotene], the “risk of prostate cancer” value in series [2] is on record as “reduced risk of prostate cancer”. Besides, the pigment losses is 36% in series [3] (CYCLOTEC mill, <0.5 mm particles); 33% in series [3] (WILEY mill, <1 mm particles); 36% in series [3] (WILEY mill, <2 mm particles); 25% in series [3] (non-ground (flake) sample).

Consider `ClC(Cl)Cl` [Chloroform], for which the LD50 in series [1] is recorded as 2.18 mL/kg.

Consider `CCOC(C)=O` [Ethyl Acetate], for which the LD50 in series [1] was 11.3 mL/kg.
